Results on 5 compounds are retold here after patent publication US7351736B2, “Therapeutic compositions (II)” (priority 1998, dated 2008).

Each structure is given as a SMILES string. Where two headings read alike, the source gives them in different places.

The conditions of data set [1]: human, cited from earlier work.
The conditions of data set [2]: liquid diet, glucose (47% of caloric content) substituted; cited from earlier work.
Details of data set [3]: species or system rats. The conditions noted are these: rat, in vivo, 30 min. The protocol: Control rats (n=2) were killed at 60 and 180 minutes after ingestion of yoghurt while triolide fed rats were killed at 80, 140, 150 and 155 minutes. Blood samples were taken for assay of (R)-3-hydroxybutyrate. Brains were funnel frozen and later extracted in perchloric acid and extracts neutralised and assayed. Blood levels of (R)-3-hydroxybutyrate were measured using a […] assay of Anal. Biochem (1983) 131, p478-482. 1.0 ml of a solution made up from 2-amino-2-methyl-1-propanol (100 mM pH 9.9, 0.094 g/10 ml), NAD^+ (30 mM, 0.199 g/10 ml) and EDTA (4 mM, 0.015 g/10 ml) was added to each of a number of cuvettes and 4 μl sample or (R)-3-hydroxybutyrate control.
The ability of orally administered (R)-3-hydroxybutyrate and the linear oligomers of Comparative examples 1 and 2 to raise blood ketone body levels was investigated as follows. Rats were fasted overnight and then gavaged with 100 μl/100 g bodyweight of 4M (R)-3-hydroxybutyrate brought to pH 7.4 using methyl glucamine. Plasma levels of (R)-3-hydroxybutyrate were measured at 0.62 mM after 30 minutes as compared to 3 mM when 9M (R)-3-hydroxybutyrate is used.
This procedure was repeated with 2M solutions of the mixtures (R)-3-hydroxybutyrate oligomers and their acetoacetyl esters described in Comparative Examples 1 and 2.

For data set [4], the system named is primary hippocampal cultures. Nature of the data set: Hippocampal microisland cultures with or without amyloid β1-42. Format: cell-based, Wistar embryos. The conditions noted are these: for neuronal cell number per microisland (mean): increase from a mean of 30. Here is the method: The serum free medium used from 0 to day 4 contained Neurobasal medium with B27 supplement diluted 50 fold (Life Technology, Gaithersburg, Md.) to which was added: 0.5 mM L-glutamine, 25 μM Na L-glutamate, 100 U/ml penicillin and 100 μg/ml streptomycin. After day 4, DMEM/F12 medium containing 5 μM insulin, 30 nM 1-thyroxine, […] progesterone, 30 nM Na selenite 100 U/ml penicillin and 100 μg/ml streptomycin were used.
The primary hippocampal cultures were removed from Wistar embryos on day 18 and dispersed by gentle agitation in a pipette. The suspension was centrifuged at 1,500×g for 10 min and the supernatant discarded. The pellet was resuspended in new media to a final cell count of […]. Ten μl of this suspension was pipetted into the center of poly D-lysine coated culture wells and the plates incubated at 38° C. for 4 hrs and then 400 μl of fresh Neurobasal media was added. After 2 days of incubation, half of the media was exchanged for fresh media and the incubation continued for 2 more days. After day 4, the medium was changed with DMEM/F12 medium containing 5 μM insulin, 30 nM 1-thyroxine, 20 nM progesterone, 30 nM Na selenite 100 U/ml penicillin and 100 μg/ml streptomycin. […] These media were exchanged 2 days later (day 8) and the cells were fixed on day 10 and stained with anti MAP2 (Boehringer Manheim, Indianapolis Ind.) to visualize neurons and vimentin and GFAP (Boehringer) to visualize glial cells.

The conditions of data set [5]: unesterified state, room temperature; cited from earlier work.
Data set [6] in a line: Oral administration of triolide in yoghurt to rats, plasma (R)-3-hydroxybutyrate. The class given is in vivo, Wistar rats. The conditions noted are these: about 0.4 g triolide in yoghurt. Here is the method:
The ability of orally administered triolide to raise blood ketone levels was investigated as follows. The day before the experiment commenced, 12 Wistar rats weighing 316+10 g were placed in separate cages. They had no access to food for 15 hours prior to presentation with triolide containing compositions, but water was provided ad libitum.
On the morning of the experiment 0.64 g of triolide was mixed with 5 g Co-op brand Black Cherry yoghurt in separate feeding bowls for 9 of the rats. The remaining 3 rats were given 5 g of the yoghurt without the triolide as controls. The yoghurt containing bowls were placed in the cages and the rats timed while they ate. Two of the three control rats ate all the yoghurt and four of the […] ate approximately half the provided amount. The remaining six rats slept.
Control rats (n=2) were killed at 60 and 180 minutes after ingestion of yoghurt while triolide fed rats were killed at 80, 140, 150 and 155 minutes. Blood samples were taken for assay of (R)-3-hydroxybutyrate. Brains were funnel frozen and later extracted in perchloric acid and extracts neutralised and assayed. Blood levels of (R)-3-hydroxybutyrate were measured using a […] assay of Anal. Biochem (1983) 131, p478-482. […]

Data set [7] in a line: Rats fed triolide in 'Hob-Nob' biscuit, ill effects. The conditions noted are these: two rats fed approximately 1.5 g triolide each in 'Hob-Nob' biscuit; after two weeks. Format: in vivo.
Where [8] appears, read: presence of (R)-3-hydroxybutyrate, whether β1-42 was present or not.

The term melting point denotes the temperature of the solid-liquid transition.

Consider `C[C@@H](O)CC(=O)[O-].[Na+]` [sodium salts of (R)-3-hydroxybutyrate], for which the “toxicity on intravenous infusion” value in data set [1] (in vivo, iv) is “non-toxic”. Further, in data set [1] (intravenous infusion), the decreasing leucine oxidation result is “ineffective”; the “glucose free fatty acids and glycerol concentration” value is recorded as “capable of decreasing”.
Regarding `CC(O)CCO` (racemic) [racemic 1,3 butandiol], in data set [2], the “blood (R)-3-hydroxybutyrate concentration” value was 0.98 mM, the blood acetoacetate concentration is reported as 0.33 mM and the “rise of blood ketone concentration” value was “about 10 fold”.
`C[C@@H](O)CC(=O)O` [(R)-3-hydroxybutyrate, (R)-3-hydroxybutyric acid]: the “plasma level of (R)-3-hydroxybutyrate” value in data set [3] stood at 3000 µM; in data set [3] (pH 7.4), 620 µM. The “neuronal cell number per microisland (mean)” value in data set [4] (8 mM (R)-3-hydroxybutyrate added to cultures containing amyloid β1-42) stood at 70 cells per microisland; in data set [4] (8 mM (R)-3-hydroxybutyrate, no amyloid β1-42), 70 cells per microisland. Further, the length of axons entry in data set [4] (setting [8]) is “increased”. Further, the “number of dendritic outgrowths” value in data set [4] (setting [8]) is “increased”.
In the case of `CC(=O)CC(=O)O` [acetoacetate], the “half time of spontaneous decarboxylation to acetone” value in data set [5] is “about 30 days”.
For the compound `C[C@@H]1CC(=O)O[C@H](C)CC(=O)O[C@H](C)CC(=O)O1` [triolide, (R,R,R)-4,8,12-trimethyl-1,5,9-trioxadodeca-2,6,10-trione], the melting point is 107 to 108 °C. In addition, the “ill effects from ingestion of triolide” value in data set [6] is recorded as “no ill effects”. For the same compound, the ill effects entry in data set [7] was “no ill effects”.
